According to paper PMC9371267 (PLoS Biology, 2022):
Positions count from the first letter of the chain named.

Assays:
Type in all cases: cell-based
[1] = molecular target: T1, GALR2 R274^7.35×34A mutant (Homo sapiens, UniProt O43603, R274A); test: NanoBiT-based Gq activation assay, R274^7.35×34A; settings: HEK293-A
T1 construct: expressed in transfected cells; host or cells: HEK293A
T1 sequence (O43603 1-387 R274A): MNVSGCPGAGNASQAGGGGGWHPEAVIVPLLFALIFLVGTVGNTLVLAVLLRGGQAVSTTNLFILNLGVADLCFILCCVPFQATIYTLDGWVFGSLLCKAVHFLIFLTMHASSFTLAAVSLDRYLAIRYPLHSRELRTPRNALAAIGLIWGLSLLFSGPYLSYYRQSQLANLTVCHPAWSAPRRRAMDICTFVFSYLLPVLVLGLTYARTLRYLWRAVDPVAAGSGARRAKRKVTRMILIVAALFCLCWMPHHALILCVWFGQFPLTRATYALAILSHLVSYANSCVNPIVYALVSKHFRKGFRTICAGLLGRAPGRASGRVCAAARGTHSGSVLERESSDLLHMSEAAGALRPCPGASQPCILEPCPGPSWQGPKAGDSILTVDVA
Method: (§1) After an incubation for 1 day, the transfected cells were harvested, pelleted with centrifugation, and suspended in 2 mL of Hank’s balanced saline solution containing 0.01% bovine serum albumin (BSA fatty acid–free grade, SERVA) and 5 mM HEPES (pH 7.4) (assay buffer). The cell suspension was dispensed in a white 96-well plate at a volume of 80 μl per well and mixed with 20 μl of 50 μM coelenterazine (custom-synthesized by Amadis Chemical) diluted in the assay buffer. After 2-h incubation at room temperature, the plate was measured for baseline luminescence (SpectraMax L, Molecular Devices). […] Kinetics data points from 5 min to 10 min were averaged and normalized to the initial count and used as a G-protein activation index. The G-protein activation signals were fitted to a 4-parameter sigmoidal concentration-response curve (GraphPad Prism8), and pEC50 values (negative logarithmic values of EC50 values) and Span values (“Top”–“Bottom”) were obtained. For individual experiments, we calculated Emax by normalizing Span to the WT GALR2 and ΔpEC50 by subtracting pEC50 of the WT GALR2 performed in parallel. We also calculated Emax/EC50 of GALR2 mutants relative to that of GALR2 WT, a dimensionless parameter known as relative intrinsic activity (RAi) and used its log-transformed value (Log RAi) to denote receptor activity.

human GALR2 WT = molecular target: T2, human GALR2 WT (Homo sapiens, UniProt O43603); test: NanoBiT-based Gq activation assay (Gq-PLCβ association), WT GALR2; settings: HEK293-A, HEK293A, normalized to WT (1:1), mean ± SEM, n = 3
T2 construct: expressed in transfected cells; host or cells: HEK293A
T2 sequence (O43603 1-387): T1 sequence (O43603 1-387 R274A) with A274R
Method: as §1

GALR2 L266^ECL3A mutant = molecular target: T3, GALR2 L266^ECL3A mutant (Homo sapiens, UniProt O43603, L266A); test: NanoBiT-based Gq activation assay, L266^ECL3A; settings: HEK293-A; HEK293A; expression ~WT (1:1); normalized to WT (1:1); mean ± SEM, n = 3; ns p > 0.05 vs expression-matched WT
T3 construct: expressed in transfected cells; host or cells: HEK293A
T3 sequence (O43603 1-387 L266A): T1 sequence (O43603 1-387 R274A) with L266A, A274R
Method: as §1

GALR2 H176^ECL2A mutant = molecular target: T4, GALR2 H176^ECL2A mutant (Homo sapiens, UniProt O43603, H176A); test: NanoBiT-based Gq activation assay, H176^ECL2A; settings: HEK293-A; HEK293A; expression ~WT (1:1); normalized to WT (1:1); mean ± SEM, n = 3; ns p > 0.05 vs expression-matched WT
T4 construct: expressed in transfected cells; host or cells: HEK293A
T4 sequence (O43603 1-387 H176A): T1 sequence (O43603 1-387 R274A) with H176A, A274R
Method: as §1

GALR2 V174^ECL2A mutant = molecular target: T5, GALR2 V174^ECL2A mutant (Homo sapiens, UniProt O43603, V174A); test: NanoBiT-based Gq activation assay, V174^ECL2A; settings: HEK293-A; HEK293A; expression ~WT (1:5); normalized to WT (1:1); mean ± SEM, n = 3; ns p > 0.05 vs expression-matched WT
T5 construct: expressed in transfected cells; host or cells: HEK293A
T5 sequence (O43603 1-387 V174A): T1 sequence (O43603 1-387 R274A) with V174A, A274R
Method: as §1

Compound `CC(C)C[C@H](NC(=O)CNC(=O)[C@H](CC(N)=O)NC(=O)[C@H](CCCCN)NC(=O)[C@H](CC(=O)O)NC(=O)[C@H](CO)NC(=O)[C@H](Cc1ccccc1)NC(=O)[C@H](CO)NC(=O)[C@H](CCCNC(=N)N)NC(=O)[C@H](Cc1c[nH]cn1)NC(=O)[C@H](CC(N)=O)NC(=O)CNC(=O)[C@@H](NC(=O)[C@H](C)NC(=O)[C@H](Cc1c[nH]cn1)NC(=O)[C@@H]1CCCN1C(=O)CNC(=O)[C@H](CC(C)C)NC(=O)[C@H](CC(C)C)NC(=O)[C@H](Cc1ccc(O)cc1)NC(=O)CNC(=O)[C@H](C)NC(=O)[C@H](CO)NC(=O)[C@H](CC(N)=O)NC(=O)[C@H](CC(C)C)NC(=O)[C@@H](NC(=O)[C@H](Cc1c[nH]c2ccccc12)NC(=O)CN)[C@@H](C)O)C(C)C)C(=O)N[C@H](C(=O)N[C@@H](CO)C(=O)O)[C@@H](C)O` [galanin] has an Emax [1] of 74.7 ± 5.9%, an Emax (human GALR2 WT; WT (1:5) plasmid) of 70.1 ± 8.7% and an Emax (human GALR2 WT; WT (1:10) plasmid) of 48.3 ± 4.7%. The Emax (human GALR2 WT; WT (1:25) plasmid) was 27.4 ± 5.1%, the Emax (GALR2 L266^ECL3A mutant) was 90.9 ± 10.5% and the Emax (GALR2 H176^ECL2A mutant) was 116 ± 3.4%. It also gave an Emax (GALR2 V174^ECL2A mutant) of 72.8 ± 11.3%.
